Data reported in article PMC9477730, “Structures and mechanism of the plant PIN-FORMED auxin transporter” (Nature, 2022).

Assays:
PIN8 [1] = target: T1, PIN8 (Arabidopsis thaliana, UniProt Q9LFP6); experiment: cryo-EM structure at […] Å (outward-open); apparent Kd by SSM electrophysiology competition with NPA binding current
T1 construct: full-length, tag-free; model residues 1–164 and 206–367, homodimer
T1 sequence (Q9LFP6 1-367): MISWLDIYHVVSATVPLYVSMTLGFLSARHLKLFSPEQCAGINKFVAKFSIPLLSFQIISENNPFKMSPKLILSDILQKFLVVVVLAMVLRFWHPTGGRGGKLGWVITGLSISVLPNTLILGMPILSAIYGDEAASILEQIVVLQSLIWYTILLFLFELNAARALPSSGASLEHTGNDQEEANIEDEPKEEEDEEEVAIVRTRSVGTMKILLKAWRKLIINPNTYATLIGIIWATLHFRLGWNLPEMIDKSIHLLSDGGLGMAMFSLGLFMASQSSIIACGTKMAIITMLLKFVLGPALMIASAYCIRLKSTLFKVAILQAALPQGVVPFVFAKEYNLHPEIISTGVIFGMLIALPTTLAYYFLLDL

PIN8 [2] = target: T1, PIN8; experiment: cryo-EM structure at […] Å (inward-open); Ki from SSM electrophysiology on proteoliposomes; assay type: biochemical
[3] = target: the molecule itself; experiment: cryo-EM structure; purified tag-free PIN8 reconstituted in peptidisc; apo (2.9 Å), with 15 mM IAA (3.2 Å) and with 2 mM NPA (3.4 Å); C2 symmetry imposed, parallel C1 refinement showed no differences between the two monomers

O=C(O)Cc1c[nH]c2ccccc12 [IAA, Indole-3-acetic acid]
Kd (PIN8 [1]): 39.9 µM

O=C(O)c1ccccc1C(=O)Nc1cccc2ccccc12 [NPA, naphthylphthalamic acid]
Ki (PIN8 [2]): 1900 nM

B1: Arabidopsis thaliana PIN8 (PIN-FORMED 8 auxin transporter) (natural protein, UniProt Q9LFP6 1-367, looked up)
chain: T1 sequence (Q9LFP6 1-367)
notes: PIN8, Arabidopsis thaliana, UniProt Q9LFP6; the PIN8 gene cloned in a p423_GAL1-based plasmid; final models include residues 1-164 and 206-367 of 367 residues total; the cytosolic loop 165-205 is in the protein but not visible in the maps; also called AtPIN8; apo-PIN8; source: S. cerevisiae strain DSY-5, purified (Ni-NTA, TEV cleavage, SEC); in peptidisc or in LMNG detergent
stoichiometry N [3]: 2
